Values quoted from earlier work in US6063383A, “Pharmaceutical suppository composites for fever and influenza and method of producing the composites” (priority 1999, dated 2000).
Entries after “also recorded” stand apart in the source; their conditions may differ. Read-outs that look alike come from different tables or passages of the source.

What was measured:
[1] = tested on: twisting reaction of small rats caused by acetic acid; conditions: into the stomach
[2] = tested on: inflammation
[3] = tested on: granuloma; conditions: for anti-granulomatous action: cotton granulomatous method; for anti-osmosis: granulationimplantation
[4] = tested on: small rats
[5] = tested on: coughing
[6] = tested on: heart separated from frogs, wister rats, or rabbits
[7] = tested on: aortic arteries
[8] = tested on: hypertension
[9] = tested on: cardiac arrhythmias
[10] = tested on: post-synaptic GABA receptors
[11] = tested on: small rats; remark: listed apart in the source
[12] = tested on: sleeping time; conditions: sub-threshold pento-barbital sodium
[13] = tested on: formation of thrombi
[14] = tested on: heat-induced pyrogenesis
[15] = tested on: pain; conditions: oral intake or injection
[16] = tested on: hypothalamus
[17] = tested on: myocardia
[18] = tested on: blood cholesterol; conditions: in vivo
[19] = tested on: blood platelets; conditions: ADP, arachidonic acids and collagen
[20] = tested on: TXA; prostate glandis (PGI)
[21] = tested on: TXA
[22] = tested on: essential hypertension and critical hypertension; conditions: in vivo
[23] = tested on: hemorrhagic heart failure
[24] = tested on: heart failure; left ventricles
[25] = tested on: small rats; conditions: rat, in vivo
[26] = tested on: liver injury caused by carbon tetrachloride
[27] = tested on: cerebral cortical nerves
[28] = tested on: convulsion
[29] = tested on: nephrosis; conditions: intra-abdominal
[30] = tested on: colon
[31] = tested on: blood capillary permeability; conditions: into the stomach
[32] = tested on: smooth muscles of the gall bladder and the dilator in the opening of the bile duct
[33] = infusing to the stomach of small rats

CC1CCC(C(C)C)C(O)C1 (stereo not drawn) [Methol]
inhibitory rate on twisting reaction [1]: 41.3%

CCCCCC(O)CC (stereo not drawn) [3-octanol]
inflammation action [2]: have inflammation action

bupleurum saponin-a
anti-granulomatous action [3]: anti-granulomatous action | anti-osmosis [3]: anti-osmosis | inhibition on over-activity ([4]; mounting experiments, conditional aversion): noticeable inhibition on the over-activity | tranquilizing effect ([4]; rat, in vivo): significant tranquilizing effect | coughing-relieving action, dose relation ([5]; intra-abdominal, 100~200 mg/kg, wister rats, 200 mg/kg): most noticeable coughing-relieving action; also recorded: related to its dosage | action of relieving coughing ([5]; rat, in vivo): stronger action of relieving coughing

C[C@H](CCC(=O)O)[C@H]1CC[C@H]2[C@@H]3[C@H](O)C[C@@H]4C[C@H](O)CC[C@]4(C)[C@H]3C[C@H](O)[C@]12C [cholic acid]
cardiac tonic effect [6]: cardiac tonic effect | contracting effect on aortic arteries [7]: contracting effect

C[C@H](CCC(=O)O)[C@H]1CC[C@H]2[C@@H]3[C@H](O)C[C@@H]4C[C@H](O)CC[C@]4(C)[C@H]3C[C@H](O)[C@]12C [calcium cholic acid]
blood pressure lowering effect ([8]; oral, 100 mg/kg): significant and long-lasting blood pressure lowering effect | duration of hypotensive effect ([8]; oral, 100 mg/kg): one

NCCS(=O)(=O)O [taurine]
effect on Ca^2+ in the myocardia [9]: biphasic moderation | prevention of cardiac arrhythmias [9]: can prevent cardiac arrhythmias | anti-arrhythmic effect ([9]; used together with quinidina, small rats): better anti-arrhythmic effect | affinity for post-synaptic GABA receptors [10]: no significant affinity | replacement of GABA effects ([10]; central nervous system): cannot replace the inhibitory effect and modulating effect of GABA | LD50 ([11]; intravenous): 330 mg/kg | hypnotizing action [12]: increase the hypnotizing action | hypotensive effect ([8]; essential or deoxy-cortisone acetate-induced hypertension): hypotensive effect | formation of thrombi [13]: noticeable inhibition on the formation of thrombi | effect on PGE1 and PGE2 mechanism ([14]; E1 (PGE1) and E2 (PGE2)): so such effect occurs | inhibition of pyrogenesis ([14]; endotoxin and white blood cells, injection into the cerebral ventricles): can inhibit the heat-induced pyrogenesis of endotoxin and white blood cells | pain relief [15]: does not produce noticeable pain relief | body temperature ([16]; injection into the hypothalamus): can increase the body temperature | body temperature ([16]; large dosage): can reduce the body temperature | effect on cell membrane [17]: stabilizing effect on the cell membrane | formation of glutathione [17]: increase the formation of glutathione | myocardial blood deficiency and damage [17]: can significantly inhibit myocardial blood deficiency and damage | myocardial injury by hyperpolarization of calcium [17]: antagonize the myocardial injury | oxygen free radicals [17]: reduce the formation of oxygen free radicals; also recorded: increases the excretion of oxygen free radicals | atherosclerosis [18]: prevent atherosclerosis | blood cholesterol [18]: reduce blood cholesterol | high-density lipoproteins [18]: increase high-density lipoproteins | agglomeration of blood platelets [19]: dosage-dependence relationship; also recorded: inhibitory action on the agglomeration of blood platelets | formation of TXA by arachidonic acids [20]: no effect on the formation of TXA by arachidonic acids | formation of TXA by collagen [20]: can inhibit the formation of TXA by collagen | formation of PGI [21]: no noticeable effect | effects in treating hypertension [22]: satisfactory | treatment effect ([23]; 6 g daily, four weeks): noticeable treatment effect | action and metabolism of cardiac tonic ([23]; catecholamines and digitalis): does not affect the action and metabolism of cardiac tonic | output of left ventricles ([24]; after 1 mg/kg propranolol or diltiazem): can improve the output of left ventricles | life expectancy ([24]; long-term oral): extends the life expectancy of rabbits | prevention of heart failure ([24]; long-term oral, incomplete opening and closing of aortic valves): can prevent the accelerated hemorrhagic heart failure | normal rate and final diastolic pressure of left ventricles ([24]; rabbit, in vivo): does not affect the normal rate of rabbits and the final diastolic pressure of left ventricles | output and systolic pressure of the left ventricles ([24]; rabbit, in vivo): significantly increase the output and systolic pressure of the left ventricles | heart-failure mortality rate ([24]; treatment group): significantly reduces with a lower heart pulse | pathological changes [25]: no pathological changes are found | protection for liver injury ([26]; in vivo): protection for the liver injury | rise of ALT ([26]; in vivo): inhibits the rise of ALT | repairing of liver cells ([26]; pathological sectioning): can promote the repairing of liver cells and the prevention of lipohepatitis | electrical activities [27]: can inhibit both the spontaneous and induced electrical activities and produce hyperpolarization | inhibitory effect on the spinal cord and brain stem with strychnine ([27]; strychnine): antagonized by strychnine | effect on convulsion ([28]; pento-tetra-amine, cepharathin, carbon monoxide, aluminum oxide, 4-amino pyride, penicillin, oxygen, low calcium, sound, L-uric acid): inhibitory effect | latency period of convulsion ([28]; strychnine): can significantly extend the latency period

chloretic acid
LD50 [11, 33]: 1520 mg/kg

COc1cc(C[C@H]2C(=O)OC[C@@H]2Cc2ccc(OC)c(OC)c2)ccc1O [arctigenin]
excretion of proteins in urine [29]: can inhibit the increase in the excretion of proteins in urine | serum biochemical index [29]: improve the serum biochemical index

COc1cc(CC2(O)C(=O)OCC2Cc2ccc(OC)c(OC)c2)ccc1O (single isomer, unassigned) [trachelogenin]
IC50 [30]: 1100 nM | antagonistic action on calcium [30]: noticeable antagonistic action on calcium | effect on contraction ([30]; high concentration of potassium): inhibitory effect on the contraction | pA2 ([30]; rat, colon): 6.60 | ratio to verapamil ([30]; versus verapamil): one-sixth

C=CC1=C(C)/C(=C/c2[nH]c(Cc3[nH]c(/C=C4\NC(=O)C(C)=C4C=C)c(C)c3CCC(=O)O)c(CCC(=O)O)c2C)NC1=O [bilirubin]
cardiac tonic effect [6]: cardiac tonic effect | contracting effect on aortic arteries [7]: weaker contracting effect

C=C1CCC2CC1C2(C)C (stereo not drawn) [β-pipene]
inflammation action [2]: have inflammation action

bupleurum saponin-d
anti-granulomatous action [3]: anti-granulomatous action | anti-osmosis [3]: anti-osmosis

CC(C)=C1CC[C@@H](C)CC1=O [Pulegone]
inhibitory rate on abdominal osmosis [31]: 39.8%

deoxy-chloretic acid
LD50 [11, 33]: 1060 mg/kg | LD50 ([11]; intravenous): 150 mg/kg | effect on bile duct / excretion of bile [32]: can relax the dilators of the bile duct

O=C1C[C@@H]2OCC=C3CN4CC[C@]56c7ccccc7N1[C@H]5[C@H]2[C@H]3C[C@H]46 [Strychnine, reference compound]
antagonism of pyrexia ([16]; rat, in vivo): can antagonize pyrexia

CC(C)NCC(O)COc1cccc2ccccc12 (stereo not drawn) [propranolol, reference compound]
output of left ventricles ([24]; 1 mg/kg): the output of the left ventricles reduces

COc1ccc([C@@H]2Sc3ccccc3N(CCN(C)C)C(=O)[C@@H]2OC(C)=O)cc1 [diltiazem, reference compound]
output of left ventricles ([24]; 1 mg/kg): the output of the left ventricles reduces
